The record followed here is the NIST ThermoML archive (doi:10.1016/j.tca.2012.04.032).

SMILES strings stand for the structures. ± gives the expanded uncertainty stated by the source.

The nature of series [1]: Molar enthalpy of transition or fusion. The following applies: Crystal; DSC.
The conditions of series [2]: Crystal; DTA.

As to `c1ccc(-c2nc(-c3ccccc3)c(-c3ccccc3)[nH]2)cc1` [2,4,5-triphenyl-1H-imidazole], in series [1], the “Molar enthalpy of transition or fusion” value was found to be 8.92 ± 0.194 kcal/mol. In addition, in series [2], the Triple point temperature came out at 550.95 ± 0.7 K.

For the compound `c1ccc(-c2ncc[nH]2)cc1` [2-phenyl-1H-imidazole], the “Molar enthalpy of transition or fusion” value in series [1] was 4.26 ± 0.108 kcal/mol. The Triple point temperature in series [2] is recorded as 419.95 ± 0.7 K.

For `c1ccc(-c2nc[nH]c2-c2ccccc2)cc1` [4,5-diphenylimidazole], the “Molar enthalpy of transition or fusion” value in series [1] came to 7.73 ± 0.17 kcal/mol. Besides, the Triple point temperature in series [2] stood at 504.95 ± 0.7 K.

As to `c1ccc2cc3ccccc3cc2c1` [anthracene], in series [1], the “Molar enthalpy of transition or fusion” value was determined as 6.1 ± 0.136 kcal/mol. In series [2], the Triple point temperature stood at 487.75 ± 0.7 K.
